Converted amounts (≈) assume the structure as drawn.
Experiments:
[1] = Solubility in methanol/water; type: physicochemical; details: for solubility: 2/1 (v/v) methanol/water, 0 °C, organic solvent or mixture, thermodynamic from solid
Protocol: The solubility of Form I in 2/1 (v/v) methanol/water at 0° C. was determined to be 0.9±0.1 mg/ml. The solubility of Form II in 2/1 (v/v) methanol/water at 0C was determined to be 1.3±0.2 mg/ml.

Hygroscopicity = type: physicochemical
Thermal stability = type: physicochemical
[2] = Vapor pressure by Knudsen effusion techniques; type: physicochemical; details: at elevated temperatures, Form I compared with Form II
Source text: The vapor pressures of Form I and Form II at elevated temperatures were similar when examined with Knudsen effusion techniques.

cisplatin-induced emesis = assay: Ferret model of cisplatin-induced emesis; type: in vivo; details: model of Tattersall et al.

Compound	solubility ([1]; 2/1 (v/v) methanol/water at 0C)	ratio of the solubilities [1]	solubility ([1]; 2/1 (v/v) methanol/water at 0° C.)	more stable than Form II by ([1]; thermodynamic stability difference between polymorphs, from solubility ratio)	hygroscopicity (Hygroscopicity)	thermal stability (Thermal stability; as a neat solid)	thermal stability (Thermal stability; in hydroalcoholic solution)	vapor pressures [2]	retching and vomiting induced by cisplatin (cisplatin-induced emesis)
CC(OC1OCCN(Cc2n[nH]c(=O)[nH]2)[C@H]1c1ccc(F)cc1)c1cc(C(F)(F)F)cc(C(F)(F)F)c1 (stereo partly drawn) [Form II]	1300 ± 200 µg/mL (≈ 2430 µM)	–	–	–	–	–	–	–	–
CC(OC1OCCN(Cc2n[nH]c(=O)[nH]2)[C@H]1c1ccc(F)cc1)c1cc(C(F)(F)F)cc(C(F)(F)F)c1 (stereo partly drawn) [Form I]	–	1.4	900 ± 100 µg/mL (≈ 1680 µM)	0.2 kcal/mol	non-hygroscopic	high degree of thermal stability	high degree of thermal stability	similar	attenuate the retching and vomiting induced by cisplatin
